IC50 data for 34 compounds are collected here from US10246456B2, “IRAK4 inhibiting agents” (BIOGEN MA INC., priority 2014, dated 2019).

In this assay the target is IRAK4 (Homo sapiens (Human), UniProt Q9NWZ3). The experiment in a line: IRAK-4 AlphaScreen biochemical kinase assay. Conditions: 1 nM IRAK4, 1 mM ATP, 3.5 h at RT. In short, it runs like this:
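AlphaScreen read-out: streptavidin beads bind the biotinylated peptide and protein A beads bind the anti-phosphothreonine antibody, so energy transfer reports phosphorylation of the peptide. The kinase is human IRAK-4.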
Background: Bead proximity is the source of the signal in Alpha formats.

Sequence of IRAK4 (Q9NWZ3 whole entry, species assumed): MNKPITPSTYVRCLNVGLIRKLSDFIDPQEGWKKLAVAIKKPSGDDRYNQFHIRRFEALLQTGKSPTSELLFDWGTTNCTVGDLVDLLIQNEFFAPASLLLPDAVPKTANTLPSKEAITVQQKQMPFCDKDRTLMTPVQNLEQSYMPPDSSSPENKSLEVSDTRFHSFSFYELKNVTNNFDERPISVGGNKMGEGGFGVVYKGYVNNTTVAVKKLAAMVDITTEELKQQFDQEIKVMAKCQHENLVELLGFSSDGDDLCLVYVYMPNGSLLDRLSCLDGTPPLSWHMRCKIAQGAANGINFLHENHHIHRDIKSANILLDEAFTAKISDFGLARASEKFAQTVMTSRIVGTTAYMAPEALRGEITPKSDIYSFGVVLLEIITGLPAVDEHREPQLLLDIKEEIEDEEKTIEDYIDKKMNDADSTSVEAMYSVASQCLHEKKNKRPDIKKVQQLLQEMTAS

A word on the IC50: it is the concentration at which inhibition is half-maximal. Higher therefore signals weaker potency in that assay. `C[C@H](N)c1cccc(-c2cc(-c3cc(C(F)(F)F)[nH]n3)c3cnn(-c4cccc(CO)n4)c3c2)n1` [Example 383, (S)-(6-(6-(6-(1-aminoethyl)pyridin-2-yl)-4-(5-(trifluoromethyl)-1H-pyrazol-3-yl)-1H-indazol-1-yl)pyridin-2-yl)methanol] showed a half-maximal inhibitory concentration (IC50) below 0.1 µM.
For the compound `CCC[C@H](N)c1cccc(-c2cc(-c3ncccn3)c3cnn(-c4cccc(CO)n4)c3c2)n1` [Example 384, (S)-(6-(6-(6-(1-aminobutyl)pyridin-2-yl)-4-(pyrimidin-2-yl)-1H-indazol-1-yl)pyridin-2-yl)methanol], the IC50 was below 0.1 µM.
For `C[C@H](N)c1cccc(-c2cc(-c3ncc(F)cn3)c3cnn(-c4cccc(CO)n4)c3c2)n1` [Example 385, (S)-(6-(6-(6-(1-aminoethyl)pyridin-2-yl)-4-(5-fluoropyrimidin-2-yl)-1H-indazol-1-yl)pyridin-2-yl)methanol], the concentration for half-maximal inhibition (IC50) is below 0.1 µM.
Compound `C[C@H](N)c1cccc(-c2cc(-c3ccn(C(F)F)n3)c3cnn(-c4cccc(CO)n4)c3c2)n1` [Example 386, (S)-(6-(6-(6-(1-aminoethyl)pyridin-2-yl)-4-(1-(difluoromethyl)-1H-pyrazol-3-yl)-1H-indazol-1-yl)pyridin-2-yl)methanol] registered an IC50 below 0.1 µM.
Turning to `C[C@H](N)c1cccc(-c2cc(-c3ccnn3C(F)F)c3cnn(-c4cccc(CO)n4)c3c2)n1` [Example 387, (S)-(6-(6-(6-(1-aminoethyl)pyridin-2-yl)-4-(1-(difluoromethyl)-1H-pyrazol-5-yl)-1H-indazol-1-yl)pyridin-2-yl)methanol], the IC50 was below 0.1 µM.
In the case of `C[C@H](N)c1cccc(-c2cc(-c3cnccn3)c3cnn(-c4cccc(CO)n4)c3c2)n1` [Example 388, (S)-(6-(6-(6-(1-aminoethyl)pyridin-2-yl)-4-(pyrazin-2-yl)-1H-indazol-1-yl)pyridin-2-yl)methanol], the IC50 was below 0.1 µM.
`CCC[C@H](N)c1cccc(-c2cc(-c3cc(C)n(C)n3)c3cnn(-c4cccc(CO)n4)c3c2)n1` [Example 389, (S)-(6-(6-(6-(1-aminobutyl)pyridin-2-yl)-4-(1,5-dimethyl-1H-pyrazol-3-yl)-1H-indazol-1-yl)pyridin-2-yl)methanol] registered an IC50 below 0.1 µM.
Compound `CC[C@@H](N)c1cccc(-c2cc(-c3cc(C)n(C)n3)c3cnn(-c4cccc(CO)n4)c3c2)n1` [Example 390, (R)-(6-(6-(6-(1-aminopropyl)pyridin-2-yl)-4-(1,5-dimethyl-1H-pyrazol-3-yl)-1H-indazol-1-yl)pyridin-2-yl)methanol] yielded an IC50 below 0.1 µM.
For the compound `Cc1cc(-c2cc(-c3cccc([C@@H](N)CF)n3)cc3c2cnn3-c2cccc(CO)n2)nn1C` [Example 391, (R)-(6-(6-(6-(1-amino-2-fluoroethyl)pyridin-2-yl)-4-(1,5-dimethyl-1H-pyrazol-3-yl)-1H-indazol-1-yl)pyridin-2-yl)methanol], the IC50 was below 0.1 µM.
In the case of `Cc1cc(-c2cc(-c3cccc([C@@H](N)CCCO)n3)cc3c2cnn3-c2cccc(CO)n2)nn1C` [Example 392, (S)-4-amino-4-(6-(4-(1,5-dimethyl-1H-pyrazol-3-yl)-1-(6-(hydroxymethyl)pyridin-2-yl)-1H-indazol-6-yl)pyridin-2-yl)butan-1-ol] it was below 0.1 µM; in that of `C[C@H](N)c1cccc(-c2cc(-c3ccncn3)c3cnn(-c4cccc(CO)n4)c3c2)n1` [Example 393, (S)-(6-(6-(6-(1-aminoethyl)pyridin-2-yl)-4-(pyrimidin-4-yl)-1H-indazol-1-yl)pyridin-2-yl)methanol], below 0.1 µM; in that of `C[C@H](N)c1cccc(-c2cc(-c3cccnn3)c3cnn(-c4cccc(CO)n4)c3c2)n1` [Example 394, (S)-(6-(6-(6-(1-aminoethyl)pyridin-2-yl)-4-(pyridazin-3-yl)-1H-indazol-1-yl)pyridin-2-yl)methanol], below 0.1 µM.
In the case of `Cn1ccc(-c2cc(-c3cccc([C@@H](N)CCCO)n3)cc3c2cnn3-c2cccc(CO)n2)n1` [Example 395, (S)-4-amino-4-(6-(1-(6-(hydroxymethyl)pyridin-2-yl)-4-(1-methyl-1H-pyrazol-3-yl)-1H-indazol-6-yl)pyridin-2-yl)butan-1-ol] it was below 0.1 µM; in that of `N[C@@H](CCCO)c1cccc(-c2ccc3cnn(-c4cccc(CO)n4)c3c2)n1` [Example 396, (S)-4-amino-4-(6-(1-(6-(hydroxymethyl)pyridin-2-yl)-1H-indazol-6-yl)pyridin-2-yl)butan-1-ol], below 0.1 µM; in that of `CCC[C@H](N)c1cccc(-c2ccc3cnn(-c4ccnc(CO)c4)c3c2)n1` [Example 400, (S)-(4-(6-(6-(1-aminobutyl)pyridin-2-yl)-1H-indazol-1-yl)pyridin-2-yl)methanol], 0.1 to 1 µM.
The compound `CCC[C@H](N)c1cccc(-c2ccc3cnn(-c4ccnc(CO)n4)c3c2)n1` [Example 401, (S)-(4-(6-(6-(1-aminobutyl)pyridin-2-yl)-1H-indazol-1-yl)pyrimidin-2-yl)methanol] yielded an IC50 below 0.1 µM.
The compound `CCC[C@H](N)c1cccc(-c2ccc3cnn(-c4cccc(CO)c4)c3c2)n1` [Example 402, (S)-(3-(6-(6-(1-aminobutyl)pyridin-2-yl)-1H-indazol-1-yl)phenyl)methanol] had an IC50 below 0.1 µM.
In the case of `CCC[C@H](N)c1cccc(-c2ccc3cnn(-c4nccc(CO)n4)c3c2)n1` [Example 403, (S)-(2-(6-(6-(1-aminobutyl)pyridin-2-yl)-1H-indazol-1-yl)pyrimidin-4-yl)methanol] it was below 0.1 µM; in that of `CCC[C@H](N)c1ccnc(-c2ccc3cnn(-c4cccc(CO)n4)c3c2)c1` [Example 404, (S)-(6-(6-(4-(1-aminobutyl)pyridin-2-yl)-1H-indazol-1-yl)pyridin-2-yl)methanol], 0.1 to 1 µM.
The compound `CCC[C@H](N)c1nccc(-c2ccc3cnn(-c4cccc(CO)n4)c3c2)n1` [Example 405, (S)-(6-(6-(2-(1-aminobutyl)pyrimidin-4-yl)-1H-indazol-1-yl)pyridin-2-yl)methanol] displayed an IC50 below 0.1 µM.
For `CCC[C@@H](N)c1nccc(-c2ccc3cnn(-c4cccc(CO)n4)c3c2)n1` [Example 406, (R)-(6-(6-(2-(1-aminobutyl)pyrimidin-4-yl)-1H-indazol-1-yl)pyridin-2-yl)methanol], the IC50 is below 0.1 µM.
The compound `CCC[C@H](N)c1cncc(-c2ccc3cnn(-c4cccc(CO)n4)c3c2)n1` [Example 407, (S)-(6-(6-(6-(1-aminobutyl)pyrazin-2-yl)-1H-indazol-1-yl)pyridin-2-yl)methanol] displayed an IC50 below 0.1 µM.
`CCC[C@@H](N)c1cncc(-c2ccc3cnn(-c4cccc(CO)n4)c3c2)n1` [Example 408, (R)-(6-(6-(6-(1-aminobutyl)pyrazin-2-yl)-1H-indazol-1-yl)pyridin-2-yl)methanol]: the IC50 was below 0.1 µM.
On to `COc1cc(-c2cccc([C@@H](N)CCCO)n2)cc2c1cnn2-c1cccc(CO)n1` [Example 409, (S)-4-amino-4-(6-(1-(6-(hydroxymethyl)pyridin-2-yl)-4-methoxy-1H-indazol-6-yl)pyridin-2-yl)butan-1-ol], for which the IC50 was below 0.1 µM.
`CCOc1cc(-c2cccc([C@@H](N)CCCO)n2)cc2c1cnn2-c1cccc(CO)n1` [Example 410, (S)-4-amino-4-(6-(4-ethoxy-1-(6-(hydroxymethyl)pyridin-2-yl)-1H-indazol-6-yl)pyridin-2-yl)butan-1-ol] showed an IC50 below 0.1 µM.
On to `C[C@@H](N)c1ccnc(-c2ccc3cnn(-c4cccc(CO)n4)c3c2)n1` [Example 412, (R)-(6-(6-(4-(1-aminoethyl)pyrimidin-2-yl)-1H-indazol-1-yl)pyridin-2-yl)methanol], for which the IC50 was in the range of 1 to 10 µM.
Regarding `[2H][C@](N)(CCC)c1cccc(-c2ccc3cnn(-c4cccc(CO)n4)c3c2)n1` [Example 419, deutero (S)-(6-(6-(6-(1-aminobutyl)pyridin-2-yl)-1H-indazol-1-yl)pyridin-2-yl)methanol], the IC50 is below 0.1 µM.
Regarding `CC1(N)CCCc2ccc(-c3ccc4cnn(-c5cccc(CO)n5)c4c3)nc21` (stereo not shown) [Example 420, (6-(6-(8-amino-8-methyl-5,6,7,8-tetrahydroquinolin-2-yl)-1H-indazol-1-yl)pyridin-2-yl)methanol], the IC50 is below 0.1 µM.
Compound `CCCC1(N)CCCc2ccc(-c3ccc4cnn(-c5cccc(CO)n5)c4c3)nc21` (stereo not shown) [Example 421, (6-(6-(8-amino-8-propyl-5,6,7,8-tetrahydroquinolin-2-yl)-1H-indazol-1-yl)pyridin-2-yl)methanol] had an IC50 below 0.1 µM.
Turning to `CCC[C@H](N)c1cccc(-c2cc(C3CCN(C)CC3)c3cnn(-c4cccc(CO)n4)c3c2)n1` [Example 424, (S)-(6-(6-(6-(1-aminobutyl)pyridin-2-yl)-4-(1-methylpiperidin-4-yl)-1H-indazol-1-yl)pyridin-2-yl)methanol], the IC50 was below 0.1 µM.
In the case of `CCC[C@H](N)c1cccc(-c2cc(OCCO)c3cnn(-c4cccc(CO)n4)c3c2)n1` [Example 426, (S)-2-((6-(6-(1-aminobutyl)pyridin-2-yl)-1-(6-(hydroxymethyl)pyridin-2-yl)-1H-indazol-4-yl)oxy)ethanol] it was below 0.1 µM; in that of `COCCOc1cc(-c2cccc([C@@H](N)CCCO)n2)cc2c1cnn2-c1cncc(CO)n1` [Example 428, (S)-4-amino-4-(6-(1-(6-(hydroxymethyl)pyrazin-2-yl)-4-(2-methoxyethoxy)-1H-indazol-6-yl)pyridin-2-yl)butan-1-ol], below 0.1 µM; in that of `COCCOc1cc(-c2cccc([C@@H](N)C(F)CCO)n2)cc2c1cnn2-c1cccc(CO)n1` (stereo partly drawn) [Example 430, (4R)-4-amino-3-fluoro-4-(6-(1-(6-(hydroxymethyl)pyridin-2-yl)-4-(2-methoxyethoxy)-1H-indazol-6-yl)pyridin-2-yl)butan-1-ol], below 0.1 µM.
In the case of `COCCOc1cc(-c2cccc([C@H](N)C(F)CCO)n2)cc2c1cnn2-c1cccc(CO)n1` (stereo partly drawn) [Example 431, (4S)-4-amino-3-fluoro-4-(6-(1-(6-(hydroxymethyl)pyridin-2-yl)-4-(2-methoxyethoxy)-1H-indazol-6-yl)pyridin-2-yl)butan-1-ol], the IC50 lay within 0.1 to 1 µM.
